Measured values reported in paper PMC3773436 (Evidence-based Complementary and Alternative Medicine : eCAM, 2013).
“Also recorded” adds a separate entry of the source. Read-outs that look alike come from different tables or passages of the source.

What was measured:
Porcine kidney DPP-IV [1] = target: T1, Porcine kidney DPP-IV (Sus scrofa, UniProt P22411); test: DPP-IV Glo Protease Assay (luminescence), DPP-IV inhibition; type: biochemical; conditions: for DPP-IV inhibitory activity (in words): tested at 0.5, 5, 20 and 40 μg/mL, data not shown
T1 construct: purchased Sigma-Aldrich; host or cells: porcine kidney (tissue-derived, as named)
Description: All solvents used for phenolic extraction were HPLC-grade and were purchased from Fisher Scientific (Pittsburg, PA). Amberlite XAD-7 was purchased from Sigma-Aldrich (St. Louis, MO). Sephadex LH-20 was purchased from GE Life Sciences (Buckinghamshire, UK). […] DPP-IV Glo^TM Protease Assay kits were purchased from Promega (Madison, WI). […] All other reagents were of analytical grade.
Measurement of the activity and potential inhibition of DPP-IV, a type II membrane glycoprotein, was done using the DPP-IV Glo^TM Protease Assay following the manufacture's protocol (Promega, Madison, WI). Briefly, 50 μL of DPP-IV Glo^TM reagent was added to a white-walled 96-well plate containing 50 μL of blank, positive control, or treatment. The blank contained the vehicle only while positive control contained the vehicle and purified DPP-IV enzyme (at a final concentration of 1 ng/mL). […] The content of the wells was gently mixed using an Ultra Microplate Reader (Biotek Instruments, Winooski, VT) at medium intensity for 4 s. DPP-IV cleavage of the provided Gly-Pro-amino methyl coumarin (AMC) substrate generated a luminescent signal by luciferase reaction, with the amount of DPP-IV enzyme available to bind Gly-Pro-AMC proportional to relative light units (RLU) produced. This signal in RLU was measured after 30 min in the Ultra Microplate Reader and then compared to the blank. […] IC50 values were calculated based on the molecular mass of each compound or C3G as the equivalent for ANC-enriched fractions.
Data were expressed as means of independent duplicates with at least three replicates. […] Statistical analysis was conducted using the proc GLM procedures of SAS version 9.3 (SAS Inst. Inc., Cary, NC, 2009). Group mean comparisons were conducted using Duncan means and were considered to be significant at P < 0.05 based on the least significant differences (LSD) from one-way analysis of variance (ANOVA) with alpha = 0.05. Correlations were made using Pearson's correlation values with P < 0.05.

Porcine kidney DPP-IV [2] = target: T1, Porcine kidney DPP-IV; test: Inhibitory kinetics study, Lineweaver-Burk plot, Gly-Pro-AMC substrate; type: biochemical; conditions: for Ki: Gly-Pro-AMC 0–60 μM, read-out: K i (enzyme-inhibition constant, experimental)
Description: Each concentration was evaluated in the presence of various concentrations of Gly-Pro-AMC (0–60 μM). DPP-IV activity was measured using the DPP-IV Glo Protease Assay as mentioned above. The inhibition pattern was evaluated utilizing the Lineweaver-Burk plot. Enzyme-inhibition constant K i was determined by plotting the reciprocal of the initial luminescence versus the reciprocal of the initial substrate concentration.
Initial rates of the reaction were measured, and the results are expressed as a Lineweaver-Burk plot. Data are expressed as the mean of four independent experiments.

[3] = pure compounds, concentration based on molecular mass, means ± SEM, read-out: IC50, DPP-IV inhibition

T1 sequence (P22411 whole entry): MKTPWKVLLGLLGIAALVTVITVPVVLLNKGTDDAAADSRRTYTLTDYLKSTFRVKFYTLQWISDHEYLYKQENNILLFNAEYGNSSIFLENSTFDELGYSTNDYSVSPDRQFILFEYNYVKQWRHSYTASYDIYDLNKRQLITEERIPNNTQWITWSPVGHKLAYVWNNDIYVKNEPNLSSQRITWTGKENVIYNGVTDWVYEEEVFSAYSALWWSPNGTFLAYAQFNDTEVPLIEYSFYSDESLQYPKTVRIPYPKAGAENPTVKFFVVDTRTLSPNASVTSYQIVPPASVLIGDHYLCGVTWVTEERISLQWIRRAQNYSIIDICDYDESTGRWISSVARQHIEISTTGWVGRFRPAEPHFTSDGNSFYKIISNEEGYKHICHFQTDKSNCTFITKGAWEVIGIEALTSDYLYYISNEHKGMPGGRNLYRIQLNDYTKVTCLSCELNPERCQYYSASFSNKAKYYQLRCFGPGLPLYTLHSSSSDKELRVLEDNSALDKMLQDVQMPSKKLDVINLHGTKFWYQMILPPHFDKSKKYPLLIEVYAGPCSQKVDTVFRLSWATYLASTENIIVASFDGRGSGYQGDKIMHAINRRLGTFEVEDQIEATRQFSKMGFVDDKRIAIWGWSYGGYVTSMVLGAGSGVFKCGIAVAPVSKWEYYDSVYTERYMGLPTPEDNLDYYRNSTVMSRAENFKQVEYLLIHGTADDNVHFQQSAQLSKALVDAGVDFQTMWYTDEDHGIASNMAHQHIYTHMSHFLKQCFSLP

Row | SMILES | IC50 (Porcine kidney DPP-IV [1]; [3]) [nM] | DPP-IV inhibitory activity (in words) (Porcine kidney DPP-IV [1]) | also measured
1 | O=C(O[C@@H]1Cc2c(O)cc(O)cc2O[C@@H]1c1cc(O)c(O)c(O)c1)c1cc(O)c(O)c(O)c1 [EGCG, epigallocatechin gallate] | 10200 ± 750 | – | –
2 | OC[C@H]1O[C@@H](Oc2cc3c(O)cc(O)cc3[o+]c2-c2ccc(O)c(O)c2)[C@H](O)[C@@H](O)[C@@H]1O [Cyanidin-3-glucoside, cyanidin-3-glucoside] | 420 ± 90 | – | –
3 | O=C(O)/C=C/c1ccc(O)c(O)c1 [Caffeic acid, caffeic acid] | 3370 ± 140 | – | –
4 | O=C(O)c1cc(O)c(O)c(O)c1 [Gallic acid, gallic acid] | 4650 ± 990 | – | –
5 | COc1ccc([C@@H]2CC(=O)c3c(O)cc(O[C@@H]4O[C@H](CO)[C@@H](O)[C@H](O)[C@H]4O[C@@H]4O[C@@H](C)[C@H](O)[C@@H](O)[C@H]4O)cc3O2)cc1O [neohesperidin] | – | did not have DPP-IV inhibitory activity; also recorded: no DPP-IV inhibitory effect | –
6 | O=C(O)c1ccc(O)c(O)c1 [protocatechuic acid] | – | did not have DPP-IV inhibitory activity | –
7 | O=C(/C=C/c1ccc(O)c(O)c1)O[C@@H]1C[C@](O)(C(=O)O)C[C@@H](O)[C@H]1O [chlorogenic acid] | – | did not have DPP-IV inhibitory activity | –
8 | C[C@@H]1O[C@@H](OC[C@H]2O[C@@H](Oc3cc(O)c4c(c3)O[C@H](c3ccc(O)c(O)c3)CC4=O)[C@H](O)[C@@H](O)[C@@H]2O)[C@H](O)[C@H](O)[C@H]1O [Eriocitrin, eriocitrin] | 10360 ± 90 | – | –
9 | C[C@@H]1O[C@@H](OC[C@H]2O[C@@H](Oc3cc(O)c4c(c3)O[C@H](c3ccc(O)cc3)CC4=O)[C@H](O)[C@@H](O)[C@@H]2O)[C@H](O)[C@H](O)[C@H]1O [narirutin] | – | did not have DPP-IV inhibitory activity; also recorded: no DPP-IV inhibitory effect | –
10 | O=c1c(-c2ccc(O)cc2)coc2cc(O[C@@H]3O[C@H](CO)[C@@H](O)[C@H](O)[C@H]3O)cc(O)c12 [genistin] | – | did not have DPP-IV inhibitory activity | –
11 | C[C@@H]1O[C@@H](O[C@H]2[C@H](Oc3cc(O)c4c(c3)O[C@H](c3ccc(O)cc3)CC4=O)O[C@H](CO)[C@@H](O)[C@@H]2O)[C@H](O)[C@H](O)[C@H]1O [naringin] | – | did not have DPP-IV inhibitory activity; also recorded: no DPP-IV inhibitory effect | –
12 | O.Oc1cc(O)c2c(c1)O[C@H](c1ccc(O)c(O)c1)[C@@H](O)C2 [catechin] | – | did not have DPP-IV inhibitory activity | –
13 | COc1cc(-c2[o+]c3cc(O)cc(O)c3cc2O)cc(OC)c1O [Malvidin, malvidin] | – | – | IC50 (Porcine kidney DPP-IV [1]): 740 ± 160 nM
14 | COc1ccc([C@@H]2CC(=O)c3c(O)cc(O[C@@H]4O[C@H](CO[C@@H]5O[C@@H](C)[C@H](O)[C@@H](O)[C@H]5O)[C@@H](O)[C@H](O)[C@H]4O)cc3O2)cc1O [hesperidin] | – | did not have DPP-IV inhibitory activity; also recorded: no DPP-IV inhibitory effect | –
15 | CC1(C)O[C@H]2CC(=O)OC[C@]23[C@H]2CC[C@@]4(C)[C@H](c5ccoc5)OC(=O)[C@H]5O[C@]54[C@]2(C)C(=O)C[C@@H]13 [limonin] | – | did not have DPP-IV inhibitory activity | –
16 | Oc1cc(O)c2c(c1)O[C@H](c1ccc(O)c(O)c1)[C@H](O)C2 [epicatechin] | – | did not have DPP-IV inhibitory activity | –
17 | COc1ccc([C@@H]2CC(=O)c3c(O)cc(O)cc3O2)cc1O [Hesperetin, hesperetin] | 280 ± 70 | – | –
18 | O=c1cc(-c2ccccc2)oc2ccccc12 [Flavone, flavone] | 170 ± 10 | – | Inhibition manner (Porcine kidney DPP-IV [2]): competitive; Ki (Porcine kidney DPP-IV [2]): 18600 ± 300 nM
19 | C[C@@H]1O[C@@H](OC[C@H]2O[C@@H](Oc3c(-c4ccc(O)c(O)c4)oc4cc(O)cc(O)c4c3=O)[C@H](O)[C@@H](O)[C@@H]2O)[C@H](O)[C@H](O)[C@H]1O [rutin, rutin hydrate] | – | did not have DPP-IV inhibitory activity; also recorded: no DPP-IV inhibitory effect | –

Continued, in another order:

Row | IC50 (Porcine kidney DPP-IV [1]; [3]) [nM] | SMILES | DPP-IV inhibitory activity (in words) (Porcine kidney DPP-IV [1]) | also measured
20 | 480 ± 40 | O=c1c(-c2ccc(O)cc2)coc2cc(O)cc(O)c12 [Genistein, genistein] | – | –
21 | 120 ± 10 | O=c1cc(-c2ccc(O)c(O)c2)oc2cc(O)cc(O)c12 [Luteolin, luteolin] | – | Inhibition manner (Porcine kidney DPP-IV [2]): noncompetitively; also recorded: noncompetitive; Ki (Porcine kidney DPP-IV [2]): 4900 ± 200 nM
22 | 240 ± 30 | O=C1C[C@@H](c2ccc(O)cc2)Oc2cc(O)cc(O)c21 [Naringenin, naringenin] | – | –
23 | 140 ± 20 | O=c1cc(-c2ccc(O)cc2)oc2cc(O)cc(O)c12 [Apigenin, apigenin] | – | Inhibition manner (Porcine kidney DPP-IV [2]): noncompetitively; also recorded: noncompetitive; Ki (Porcine kidney DPP-IV [2]): 7900 ± 1400 nM
24 | 1410 ± 250 | Oc1cc(O)c2cc(O)c(-c3ccc(O)c(O)c3)[o+]c2c1 [Cyanidin, cyanidin] | – | –
25 | 0.6 ± 0.4 | Oc1ccc(/C=C/c2cc(O)cc(O)c2)cc1 [Resveratrol, resveratrol] | – | Inhibition manner (Porcine kidney DPP-IV [2]): competitive; Ki (Porcine kidney DPP-IV [2]): 200 ± 10 nM
26 | 2920 ± 680 | O=c1c(O)c(-c2ccc(O)c(O)c2)oc2cc(O)cc(O)c12 [Quercetin, quercetin] | – | –
27 | 490 ± 20 | O=c1c(O)c(-c2ccc(O)cc2)oc2cc(O)cc(O)c12 [Kaempferol, kaempferol] | – | –
